The test system of assay [1] is AR / CBP ternary complex. In words: Ternary complex formation assay (sandwich ELISA, AR capture / CBP detection) in VCaP cell lysates. It is filed as cell-based. The following applies: 1.5 hours treatment, sandwich ELISA (AR capture, CBP or p300 detection). The procedure, abridged: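 Anti-AR (AR 441)-coated plates capture AR from lysates of VCaP cells grown ≥3 days at 50K/well in 5% charcoal-stripped FBS, dosed with bifunctional for 1.5 h and lysed 30 min at 4 °C. Co-captured CBP/p300 is probed with rabbit mAb and HRP anti-rabbit, then QuantaRed fluorescence (570/585) is read at 0, 5 and 15 min.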
For orientation: In an ELISA, binding on a coated surface is turned into a signal by an enzyme label.

Assay [2] concerns VCaP cells. In words: VCaP growth inhibition assay. It counts as cell-based. The following applies: 30 pM R1881, 9 days, CTG. The procedure, abridged:
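Growth read by CTG luminescence after 9-day exposure to compound (final 100 nM–10 fM, 1:5 steps) plus 30 pM R1881, in phenol red-free DMEM with 5% CSS. Cells pre-incubated 72 h before dosing; IC50 by nonlinear 4-parameter regression.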

Experimental findings from US20250129070A1, “BIFUNCTIONAL ANDROGEN RECEPTOR COMPOUNDS” (priority 2023, published 2025) are described below.

For the molecule `CC(=O)N1CCc2c(c(N3CCCc4ccc(C(F)F)cc43)nn2C2CC3(C2)CN(C(=O)C2CC4(C2)CN(c2ncc(C(=O)NC5C(C)(C)C(Oc6ccc(C#N)c(Cl)c6)C5(C)C)cn2)C4)C3)C1` (stereo not shown) [Compound 218, 2-[6-[6-[5-acetyl-3-[7-(difluoromethyl)-3,4-dihydro-2H-quinolin-1-yl]-6,7-dihydro-4H-pyrazolo[4,3-c]pyridin-1-yl]-2-azaspiro[3.3]heptane-2-carbonyl]-2-azaspiro[3.3]heptan-2-yl]-N-[3-(3-chloro-4-cyano-phenoxy)-2,2,4,4-tetramethyl-cyclobutyl]pyrimidine-5-carboxamide], in assay [1], the EC50 is greater than 100 nM. This molecule displayed an IC50 in assay [2] of 1 to 100 nM.
In assay [1], `CC(=O)N1CCc2c(c(N3CCc4cc(-c5cnn(C)c5)c(C(F)F)cc43)nn2C2CCN(CC3CCN(c4ncc(C(=O)NC5C(C)(C)C(Oc6ccc(C#N)c(Cl)c6)C5(C)C)cn4)CC3)CC2)C1` (stereo not shown) [Compound 13, 2-[4-[[4-[5-acetyl-3-[6-(difluoromethyl)-5-(1-methylpyrazol-4-yl)indolin-1-yl]-6,7-dihydro-4H-pyrazolo[4,3-c]pyridin-1-yl]-1-piperidyl]methyl]-1-piperidyl]-N-[3-(3-chloro-4-cyano-phenoxy)-2,2,4,4-tetramethyl-cyclobutyl]pyrimidine-5-carboxamide] registered an EC50 of 1 to 10 nM. Moreover, the IC50 in assay [2] was in the range of 0.1 to 1 nM.
Molecule `CC(=O)N1CCc2c(c(N3CCCc4cc(-c5cnn(C)c5)c(C(F)F)cc43)nn2C2CCN(CC3C(C)CN(c4ncc(C(=O)NC5C(C)(C)C(Oc6ccc(C#N)c(C)c6)C5(C)C)cn4)CC3C)CC2)C1` (stereo not shown) [Compound 462, 2-[4-[[4-[5-acetyl-3-[7-(difluoromethyl)-6-(1-methylpyrazol-4-yl)-3,4-dihydro-2H-quinolin-1-yl]-6,7-dihydro-4H-pyrazolo[4,3-c]pyridin-1-yl]-1-piperidyl]methyl]-3,5-dimethyl-1-piperidyl]-N-[3-(4-cyano-3-methyl-phenoxy)-2,2,4,4-tetramethyl-cyclobutyl]pyrimidine-5-carboxamide] had an EC50 in assay [1] of less than 1 nM. The IC50 in assay [2] is no more than 0.1 nM.
For `CC(=O)N1CCc2c(c(N3CCCc4cc(-c5cnn(C)c5)c(C(F)F)cc43)nn2C2CCN(C3CCC4(CC3)CN(c3ncc(C(=O)NC5C(C)(C)C(Oc6ccc(C#N)c(Cl)c6)C5(C)C)cn3)C4)CC2)C1` (stereo not shown) [Compound 274, 2-[7-[4-[5-acetyl-3-[7-(difluoromethyl)-6-(1-methylpyrazol-4-yl)-3,4-dihydro-2H-quinolin-1-yl]-6,7-dihydro-4H-pyrazolo[4,3-c]pyridin-1-yl]-1-piperidyl]-2-azaspiro[3.5]nonan-2-yl]-N-[3-(3-chloro-4-cyano-phenoxy)-2,2,4,4-tetramethyl-cyclobutyl]pyrimidine-5-carboxamide], the EC50 in assay [1] is less than 1 nM. In assay [2], the IC50 was no more than 0.1 nM.
As to `COc1cc(OC2C(C)(C)C(NC(=O)c3ccc(OC4CC5(CCC(N6CCC(n7nc(N8CCCc9cc(-c%10cnn(C)c%10)c(C(F)F)cc98)c8c7CCN(C(C)=O)C8)CC6)CC5)C4)cc3)C2(C)C)ccc1C#N` (stereo not shown) [Compound 384, 4-[7-[4-[5-acetyl-3-[7-(difluoromethyl)-6-(1-methylpyrazol-4-yl)-3,4-dihydro-2H-quinolin-1-yl]-6,7-dihydro-4H-pyrazolo[4,3-c]pyridin-1-yl]-1-piperidyl]spiro[3.5]nonan-2-yl] oxy-N-[3-(4-cyano-3-methoxy-phenoxy)-2,2,4,4-tetramethyl-cyclobutyl]benzamide], the EC50 in assay [1] was less than 1 nM. For the same molecule, the IC50 in assay [2] was no more than 0.1 nM.
For `CC(=O)N1CCc2c(c(N3CCCc4cc(-c5cnn(C)c5)c(Cl)cc43)nn2C2CCN(CC3CCN(c4ncc(C(=O)NC5C(C)(C)C(Oc6ccc(C#N)c(Cl)c6)C5(C)C)cn4)CC3)CC2)C1` (stereo not shown) [Compound 25, 2-[4-[[4-[5-acetyl-3-[7-chloro-6-(1-methylpyrazol-4-yl)-3,4-dihydro-2H-quinolin-1-yl]-6,7-dihydro-4H-pyrazolo[4,3-c]pyridin-1-yl]-1-piperidyl]methyl]-1-piperidyl]-N-[3-(3-chloro-4-cyano-phenoxy)-2,2,4,4-tetramethyl-cyclobutyl]pyrimidine-5-carboxamide] the same measures were 1 to 10 nM and 0.1 to 1 nM.
`CC(=O)N1CCc2c(c(N3CCCc4cc(-c5cnn(C)c5)c(C)cc43)nn2C2CCN(CC3CCN(c4ncc(C(=O)NC5C(C)(C)C(Oc6ccc(C#N)c(Cl)c6)C5(C)C)cn4)CC3)CC2)C1` (stereo not shown) [Compound 26, 2-[4-[[4-[5-acetyl-3-[7-methyl-6-(1-methylpyrazol-4-yl)-3,4-dihydro-2H-quinolin-1-yl]-6,7-dihydro-4H-pyrazolo[4,3-c]pyridin-1-yl]-1-piperidyl]methyl]-1-piperidyl]-N-[3-(3-chloro-4-cyano-phenoxy)-2,2,4,4-tetramethyl-cyclobutyl]pyrimidine-5-carboxamide] registered an EC50 in assay [1] of less than 1 nM. Moreover, in assay [2], the IC50 was in the range of 0.1 to 1 nM.
The like results for `CC(=O)N1CCc2c(c(-c3cccc4cc(-c5cnn(CCC6CC7(C6)CN(c6ncc(C(=O)NC8C(C)(C)C(Oc9ccc(C#N)c(Cl)c9)C8(C)C)cn6)C7)c5)ncc34)nn2C2CCOCC2)C1` (stereo not shown) [Compound 225, 2-[6-[2-[4-[8-(5-acetyl-1-tetrahydropyran-4-yl-6,7-dihydro-4H-pyrazolo[4,3-c]pyridin-3-yl)-3-isoquinolyl]pyrazol-1-yl]ethyl]-2-azaspiro[3.3]heptan-2-yl]-N-[3-(3-chloro-4-cyano-phenoxy)-2,2,4,4-tetramethyl-cyclobutyl]pyrimidine-5-carboxamide] were, in that order, less than 1 nM and 0.1 to 1 nM.
For `COc1cc(OC2C(C)(C)C(NC(=O)c3ccc(N4CCC(N5CCC6(CC5)CC(n5nc(N7CCCc8cc(-c9cnn(C)c9)c(C(F)F)cc87)c7c5CCN(C(C)=O)C7)C6)CC4)cc3)C2(C)C)ccc1C#N` (stereo not shown) [Compound 374, 4-[4-[2-[5-acetyl-3-[7-(difluoromethyl)-6-(1-methylpyrazol-4-yl)-3,4-dihydro-2H-quinolin-1-yl]-6,7-dihydro-4H-pyrazolo[4,3-c]pyridin-1-yl]-7-azaspiro[3.5]nonan-7-yl]-1-piperidyl]-N-[3-(4-cyano-3-methoxy-phenoxy)-2,2,4,4-tetramethyl-cyclobutyl]benzamide] the same measures were less than 1 nM and 0.1 to 1 nM.
For `CC(=O)N1CCc2c(c(N3CCCc4cc(-c5cnn(C)c5)c(C(F)F)cc43)nn2C2CCN([C@@H]3CCN(c4ncc(C(=O)NC5C(C)(C)C(Oc6ccc(C#N)c(Cl)c6)C5(C)C)cn4)C3)CC2)C1` (stereo partly drawn) [Compound 335, 2-[(3R)-3-[4-[5-acetyl-3-[7-(difluoromethyl)-6-(1-methylpyrazol-4-yl)-3,4-dihydro-2H-quinolin-1-yl]-6,7-dihydro-4H-pyrazolo[4,3-c]pyridin-1-yl]-1-piperidyl]pyrrolidin-1-yl]-N-[3-(3-chloro-4-cyano-phenoxy)-2,2,4,4-tetramethyl-cyclobutyl]pyrimidine-5-carboxamide] the same measures were less than 1 nM and 0.1 to 1 nM.
`C[C@@H]1CC(=O)Nc2cccc(-c3ccc4c(c3)c(-c3cnn(C)c3)nn4CCCN(C)c3ncc(C(=O)NC4C(C)(C)C(Oc5ccc(C#N)c(Cl)c5)C4(C)C)cn3)c2N1` (stereo partly drawn) [Compound 50, N-[3-(3-chloro-4-cyano-phenoxy)-2,2,4,4-tetramethyl-cyclobutyl]-2-[methyl-[3-[5-[(4R)-4-methyl-2-oxo-1,3,4,5-tetrahydro-1,5-benzodiazepin-6-yl]-3-(1-methylpyrazol-4-yl)indazol-1-yl]propyl]amino]pyrimidine-5-carboxamide] registered an EC50 in assay [1] of less than 1 nM. The molecule further had an IC50 in assay [2] of 0.1 to 1 nM.
The like results for `CC(=O)N1CCc2c(c(N3CCCc4cc(-c5cnn(C)c5)c(C(F)F)cc43)nn2C2CCN(CC3CCN(c4ccc5c(n4)CN(C4C(C)(C)C(Oc6ccc(C#N)c(Cl)c6)C4(C)C)C5=O)CC3)CC2)C1` (stereo not shown) [Compound 296, 4-[3-[2-[4-[[4-[5-acetyl-3-[7-(difluoromethyl)-6-(1-methylpyrazol-4-yl)-3,4-dihydro-2H-quinolin-1-yl]-6,7-dihydro-4H-pyrazolo[4,3-c]pyridin-1-yl]-1-piperidyl]methyl]-1-piperidyl]-5-oxo-7H-pyrrolo[3,4-b]pyridin-6-yl]-2,2,4,4-tetramethyl-cyclobutoxy]-2-chloro-benzonitrile] were, in that order, less than 1 nM and 0.1 to 1 nM.
For `CN1C(=O)CCc2cc(N3CCCc4cc(-c5ccc(CCC6CCN(c7ncc(C(=O)NC8C(C)(C)C(Oc9ccc(C#N)c(Cl)c9)C8(C)C)cn7)CC6)nc5)ncc43)ccc21` (stereo not shown) [Compound 240, N-[3-(3-chloro-4-cyano-phenoxy)-2,2,4,4-tetramethyl-cyclobutyl]-2-[4-[2-[5-[1-(1-methyl-2-oxo-3,4-dihydroquinolin-6-yl)-3,4-dihydro-2H-1,7-naphthyridin-6-yl]-2-pyridyl]ethyl]-1-piperidyl]pyrimidine-5-carboxamide] the same measures were 1 to 10 nM and 1 to 100 nM.
The like results for `CN1C(=O)CCc2cc(N3CCCc4cc(-c5ccc(CCC6CCN(c7ncc(C(=O)NC8C(C)(C)C(Oc9ccc(C#N)c(Cl)c9)C8(C)C)cn7)CC6)nc5)c(C(F)F)cc43)ccc21` (stereo not shown) [Compound 239, N-[3-(3-chloro-4-cyano-phenoxy)-2,2,4,4-tetramethyl-cyclobutyl]-2-[4-[2-[5-[7-(difluoromethyl)-1-(1-methyl-2-oxo-3,4-dihydroquinolin-6-yl)-3,4-dihydro-2H-quinolin-6-yl]-2-pyridyl]ethyl]-1-piperidyl]pyrimidine-5-carboxamide] were, in that order, less than 1 nM and 1 to 100 nM.

By EC50 is commonly meant the concentration that produces a half-maximal response. Read a high EC50 as lower potency in that assay. Usually IC50 stands for the midpoint of a concentration-inhibition curve. Low values mean greater potency, high ones weaker potency.
